Test results taken from publication PMC6518372, “An enzymatically stable GIP/xenin hybrid peptide restores GIP sensitivity, enhances beta cell function and improves glucose homeostasis in high-fat-fed mice” (Diabetologia, 2016).
Where a SMILES comes first, the peptide text is derived from it. [ ]: non-standard residue; d: D form.

Tests used:
purified porcine DPP-4 = purified porcine DPP-4 (Sus scrofa, UniProt P22411); assay: DPP-4 degradation / in vitro DPP-4 half-life; conditions: 20 μg peptide, 5 mU purified DPP-4, up to 12 h, HPLC
Procedure: Peptide (20 μg) DPP-4 degradation profiles (5 μl purified DPP-4, 5 mU; Sigma-Aldrich, UK) were assessed as described previously.
For calculation of experimental molecular masses, peptide samples (1 µg) were mixed with α-cyano-4-hydroxycinnamic acid (1 µg) and applied to a Voyager-DE BioSpectrometry Workstation and mass-to-charge (m/z) ratio verses peak intensity recorded by MALDI-TOF mass spectrometry. DPP-4 half-life was assessed by incubating peptides (37°C in 50 mmol/L TEA-HCl; pH 7.8) with 5 mU purified porcine DPP-4 for 0, 1, 2, 4, 8 and 12 h. Degradation profiles were obtained using rp-HPLC analysis and HPLC peak area data used to calculate percentage intact peptide remaining at each time point.

lean control mice [1] = assay: Persistent glucose-lowering and insulin-releasing effects, peptide 4 h before glucose load; format: in vivo, mouse; conditions: 25 nmol/kg injected 4 h before i.p. glucose load 18 mmol/kg, non-fasted lean mice, vs saline
Procedure: (§1) Specific information on acute feeding, glucose homeostasis and insulin-secretory studies is given in ESM Methods. To assess the impact of GIP and neurotensin receptor activation on (DAla^2)GIP/xenin-8-Gln-induced glucose-lowering and insulin-secretory actions in mice, (DAla^2)GIP/xenin-8-Gln was administered by i.p. injection (25 nmol/kg body weight) in combination with glucose (18 mmol/kg) in the absence and presence of GIP(6-30)Cex-K^40[Pal] and SR142948A (both at 25 nmol/kg), and glucose and insulin were measured as described above. In a final series of experiments, test peptides (25 nmol/kg) or saline vehicle (0.9% wt/vol. NaCl) were injected 4 h before a glucose load (18 mmol/kg) in non-fasted mice and blood glucose and plasma insulin measured as above.

lean control mice [2] = assay: Acute glucose-lowering and insulin-releasing effects in lean mice; format: in vivo, mouse; conditions: 25 nmol/kg i.p. with glucose 18 mmol/kg, non-fasted lean mice, vs glucose alone
Procedure: as §1, with “as above. […]” for “as above.”
(§2) Animals Acute animal studies were conducted in male NIH Swiss mice (12-14 weeks old, Harlan Ltd, UK) maintained on a standard rodent maintenance diet (10% fat, 30% protein and 60% carbohydrate, Trouw Nutrition, UK). Prior to commencement of longer term studies, all animals, except lean controls that continued on rodent maintenance diet, were maintained on a high-fat diet (45% fat, 35% carbohydrate and 20% protein, Special Diet Services, UK) for 12 weeks. This diet […]
(§3) individually in an air-conditioned room at 22 ± 2 °C with a 12 h light:12 h dark cycle and had free access to food and water. Animal experiments were carried out in accordance with the UK Animals (Scientific Procedures) Act 1986.
(§4) Acute in vivo effects in lean mice For food intake studies, fasted (18 h) mice were given intraperitoneal (i.p) injections of peptides at a dose of 25, 100 or 250 nmol/kg bw. Mice were then allowed free access to normal chow for 180 mins and cumulative food intake measured. For glucose homeostasis and […]

BRIN-BD11 cells [3] = assay: In vitro insulin secretion from BRIN-BD11 cells; format: cell-based, rat; conditions: peptide 10^−6 mol/l, antagonist 10^−6 mol/l, 5.6 mmol/l glucose, 20 min
Procedure: (§5) BRIN-BD11 cells were used to assess the insulin-releasing activity of test peptides, as described previously. This hybrid cell line (ECACC 10033003) was originally generated in-house by electrofusion of a primary culture of New England Deaconess Hospital (NEDH) rat pancreatic islets with RINm5F (a cell line derived from an NEDH rat insulinoma), and has been mycoplasma eradicated. For details of experimental conditions please see ESM Methods. Insulin was measured by radioimmunoassay. We assessed the impact of GIP and neurotensin receptors on (DAla^2)GIP/xenin-8-Gln-induced insulin secretion in BRIN-BD11 cells. Cells were incubated in 5.6 mmol/l glucose with (DAla^2)GIP/xenin-8-Gln (10^−6 mol/l) alone or in combination with the GIP receptor antagonist GIP(6-30)Cex-K^40[Pal] [32] (where Pal is palmitate) or the neurotensin receptor antagonist SR142948A (Sigma, Poole, UK), and insulin secretion determined as described above. In addition, to determine mechanisms, intracellular Ca^2+ was also measured in BRIN-BD11 cells following treatment with test peptides (10^−6 mol/l), using a Flexstation scanning fluorometer (FLIPR Calcium 5 assay kit; Molecular Devices, Sunnyvale, CA, USA), as described previously.
In vitro insulin release studies Cells were seeded at a density of 150,000 cells/well in 24-well plates (Nunc, Roskilde, Denmark) and allowed to attach overnight at 37 °C. Culture medium was removed and cells were pre-incubated in Krebs–Ringer bicarbonate buffer (containing 0.5% (w/v) BSA, pH 7.4) supplemented with 1.1 mmol/l glucose for 40 min at 37 °C. Following the pre-incubation, experiments (n=8) were performed in presence of glucose (5.6 or 16.7 mmol/l) with a […]
incubations, aliquots of assay buffer were collected from each well and stored at -20 °C prior to […]
Acute in vivo effects in lean mice For food intake studies, fasted (18 h) mice were given intraperitoneal (i.p) injections of peptides at a dose of 25, 100 or 250 nmol/kg bw. Mice were then allowed free access to normal chow for 180 mins and cumulative food intake measured. […]

BRIN-BD11 cells [4] = assay: Intracellular Ca2+ in BRIN-BD11 cells (FLIPR Calcium 5); format: cell-based, rat; conditions: peptide 10^−6 mol/l, 5.6 mmol/l glucose, 5 min, AUC 0–300 s
Procedure: as §5

lean control mice [5] = assay: Acute cumulative food intake in lean mice; format: in vivo, mouse; conditions: 250 nmol/kg i.p., 18 h fasted lean mice, 120 min post injection, vs saline
Procedure: as §2, §3, §4

Sequence of purified porcine DPP-4 (P22411 whole entry): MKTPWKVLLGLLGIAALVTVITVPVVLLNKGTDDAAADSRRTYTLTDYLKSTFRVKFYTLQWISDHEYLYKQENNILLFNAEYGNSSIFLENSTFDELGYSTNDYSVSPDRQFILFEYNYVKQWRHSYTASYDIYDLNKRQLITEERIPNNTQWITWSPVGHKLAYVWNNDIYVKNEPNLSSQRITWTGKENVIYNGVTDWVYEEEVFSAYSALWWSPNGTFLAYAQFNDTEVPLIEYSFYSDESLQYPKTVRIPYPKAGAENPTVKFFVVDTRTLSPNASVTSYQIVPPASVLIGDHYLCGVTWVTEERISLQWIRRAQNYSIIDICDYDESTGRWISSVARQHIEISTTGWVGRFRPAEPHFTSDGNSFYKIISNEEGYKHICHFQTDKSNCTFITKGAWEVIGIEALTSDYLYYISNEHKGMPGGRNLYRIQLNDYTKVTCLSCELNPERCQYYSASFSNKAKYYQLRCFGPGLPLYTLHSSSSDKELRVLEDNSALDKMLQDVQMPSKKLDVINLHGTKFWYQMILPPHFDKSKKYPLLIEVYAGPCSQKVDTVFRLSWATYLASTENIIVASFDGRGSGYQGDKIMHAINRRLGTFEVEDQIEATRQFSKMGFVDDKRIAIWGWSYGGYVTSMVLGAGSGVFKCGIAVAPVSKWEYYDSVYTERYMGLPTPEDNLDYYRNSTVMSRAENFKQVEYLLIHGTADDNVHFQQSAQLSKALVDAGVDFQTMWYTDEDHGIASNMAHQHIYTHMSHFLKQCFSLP

CC[C@H](C)[C@H](NC(=O)[C@H](CO)NC(=O)[C@H](Cc1ccc(O)cc1)NC(=O)[C@H](CC(=O)O)NC(=O)[C@H](CO)NC(=O)[C@@H](NC(=O)[C@H](Cc1ccccc1)NC(=O)[C@@H](NC(=O)CNC(=O)[C@H](CCC(=O)O)NC(=O)[C@@H](C)NC(=O)[C@@H](N)Cc1ccc(O)cc1)[C@@H](C)O)[C@@H](C)CC)C(=O)N[C@@H](C)C(=O)N[C@@H](CCSC)C(=O)N[C@@H](Cc1c[nH]cn1)C(=O)N1CCC[C@H]1C(=O)N[C@@H](CCC(N)=O)C(=O)N[C@@H](CCC(N)=O)C(=O)N1CCC[C@H]1C(=O)N[C@@H](Cc1c[nH]c2ccccc12)C(=O)N[C@H](C(=O)N[C@@H](CC(C)C)C(=O)O)[C@@H](C)CC [(DAla^2)GIP/xenin-8-Gln] (H-Y[dA]EGTFISDYSIAMHPQQPWIL-OH)
Stability when incubated in the presence of DPP-4 (purified porcine DPP-4): remained fully intact

CC[C@H](C)[C@H](NC(=O)[C@H](Cc1c[nH]c2ccccc12)NC(=O)[C@@H]1CCCN1C(=O)[C@H](CCC(N)=O)NC(=O)[C@H](CCC(N)=O)NC(=O)[C@@H]1CCCN1C(=O)[C@@H](N)Cc1c[nH]cn1)C(=O)N[C@@H](CC(C)C)C(=O)O [xenin-8-Gln] (H-HPQQPWIL-OH)
Overall AUC for blood glucose after glucose challenge (lean control mice [1]): devoid of glucose-lowering or insulin-releasing effects | Plasma insulin AUC after glucose challenge (lean control mice [1]): devoid of glucose-lowering or insulin-releasing effects | Blood glucose (lean control mice [2]; 30 min post injection): significantly (p < 0.05) lowered blood glucose values | Overall AUC blood glucose (lean control mice [2]): significantly (p < 0.05) decreased overall AUC blood glucose values | Peptide-mediated insulin secretion in presence of neurotensin receptor antagonist SR142948A (BRIN-BD11 cells [3]): similar, but less prominent, effect | Effect on intracellular Ca^2+ concentrations (BRIN-BD11 cells [4]): Neither, (DAla^2)GIP, xenin-8-Gln nor (DAla^2)GIP/xenin-8-Gln had any effect | Cumulative food intake (lean control mice [5]): significant (p < 0.05) reductions in food intake
